The text below walks through data of patent publication US11731972B2, “Spiro compounds as glycosidase inhibitors” (Asceneuron SA, priority 2018, dated 2023).

Structures are written as SMILES.

This test deals with His-Tagged hOGA (human O-GlcNAcase) (Homo sapiens (Human), UniProt O60502). The experiment in a line: Human O-GlcNAcase enzyme inhibition assay (Example B01). The class given is biochemical. Particulars: OGA enzyme inhibition assay; FL-GlcNAc substrate, 60 min, room temperature, pH 6.5. Here is the method: Example B01: Human O-GlcNAcase Enzyme Inhibition Assay
His-Tagged hOGA (human O-GlcNAcase), sequence (O60502 whole entry): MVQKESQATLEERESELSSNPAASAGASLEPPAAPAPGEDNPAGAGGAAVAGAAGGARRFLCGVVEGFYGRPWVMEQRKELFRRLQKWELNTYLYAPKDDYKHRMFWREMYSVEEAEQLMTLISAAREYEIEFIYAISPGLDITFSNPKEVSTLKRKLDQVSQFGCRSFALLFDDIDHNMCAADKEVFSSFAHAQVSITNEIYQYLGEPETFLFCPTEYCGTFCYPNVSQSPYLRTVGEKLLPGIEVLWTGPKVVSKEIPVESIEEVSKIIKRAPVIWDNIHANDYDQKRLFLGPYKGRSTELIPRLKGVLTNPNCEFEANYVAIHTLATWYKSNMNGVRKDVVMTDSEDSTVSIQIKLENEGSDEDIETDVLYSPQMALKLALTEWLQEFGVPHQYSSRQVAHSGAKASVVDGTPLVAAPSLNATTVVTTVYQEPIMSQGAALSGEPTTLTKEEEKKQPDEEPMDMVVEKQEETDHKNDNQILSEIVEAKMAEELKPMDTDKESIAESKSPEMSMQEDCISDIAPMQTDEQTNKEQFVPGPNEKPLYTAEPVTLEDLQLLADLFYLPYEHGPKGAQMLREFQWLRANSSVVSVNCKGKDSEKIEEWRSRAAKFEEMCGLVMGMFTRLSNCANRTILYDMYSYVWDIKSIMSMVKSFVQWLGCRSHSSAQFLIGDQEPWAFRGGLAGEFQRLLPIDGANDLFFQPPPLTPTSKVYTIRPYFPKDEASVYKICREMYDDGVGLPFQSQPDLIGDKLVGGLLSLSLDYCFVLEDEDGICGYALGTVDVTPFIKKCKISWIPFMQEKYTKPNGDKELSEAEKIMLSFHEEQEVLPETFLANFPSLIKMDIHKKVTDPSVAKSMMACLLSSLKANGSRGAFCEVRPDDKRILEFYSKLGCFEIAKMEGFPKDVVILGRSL
5 μl of the appropriate concentration of a solution of inhibitor in McIlvaine's Buffer (pH 6.5) in 2% DMSO (for a dose response curve calculation) is added into each well of a 384-well plate (Greiner, 781900). Then, 20 nM of His-Tagged hOGA and 10 μM of FL-GlcNAc (Fluorescein mono-beta-D-(2-deoxy-2-N-acetyl) glucopyranoside; Marker Gene Technologies Inc, M1485) were added to the 384-well plate for a final volume of 20 μl. After incubation for 60 min at room temperature, the reaction was terminated by the addition of 10 μL of stop buffer (200 mM glycine, pH 10.75). The level of fluorescence (λexc 485 nm; (λemm 520 nm) was read on a PHERAstar machine. The amount of fluorescence measured was plotted against the concentration of inhibitor to produce a sigmoidal dose response curve to calculate an IC50. All individual data was corrected by subtraction of the background (Thiamet 3 uM=100% inhibition) whilst 0.5% DMSO was considered as the control value (no inhibition).
A word on the IC50: it is the concentration that gives 50% inhibition. As for `CC(c1ccc2scnc2c1)N1CCC2(CC1)NC(=O)N(c1cccc(S(C)(=O)=O)c1)C2=O` (racemic) [Example 64], the IC50 was 50 to 200 nM.
Molecule `CC(c1ccc2scnc2c1)N1CCC2(CC1)NC(=O)N(c1cncnc1)C2=O` (racemic) [Example 62] came in with an IC50 of 50 to 200 nM.
With `CC(c1ccc2scnc2c1)N1CCC2(CC1)CN(c1cccc(S(C)(=O)=O)c1)C(=O)N2` (racemic) [Example 35, 8-(1-(benzo[d]thiazol-5-yl)ethyl)-3-(3-(methylsulfonyl)phenyl)-1,3,8-triazaspiro[4.5]decan-2-one] the figure was 50 to 200 nM; with `CC(c1ccc2scnc2c1)N1CCC2(CC1)C(=O)N(c1ccc(C#N)cc1)c1ccccc12` (racemic) [Example 25, 4-(1′-(1-(benzo[d]thiazol-5-yl)ethyl)-2-oxospiro[indoline-3,4′-piperidin]-1-yl)benzonitrile], 50 to 200 nM.
With `CC(=O)Nc1ncc(CN2CCC3(CC2)NC(=O)N(c2cc(C)nc(C)c2)C3=O)s1` (racemic) [IA2] the figure was 50 to 200 nM; with `CC(c1ccc2scnc2c1)N1CCC2(CC1)CN(Cc1ccc(C#N)cc1)C(=O)N2` (racemic) [Example 32, 4-((8-(1-(benzo[d]thiazol-5-yl)ethyl)-2-oxo-1,3,8-triazaspiro[4.5]decan-3-yl)methyl)benzonitrile], 50 to 200 nM; with `CC(c1ccc2scnc2c1)N1CCC2(CC1)C(=O)Nc1ccccc12` (racemic) [Example 20, 1′-(1-(benzo[d]thiazol-5-yl)ethyl)spiro[indoline-3,4′-piperidin]-2-one], 200 to 1000 nM.
The result for `CC(=O)Nc1ncc(CN2CCC3(CC2)CC(=O)N(c2ccc(C#N)cc2)C3)s1` (racemic) [IA7] reads 200 to 1000 nM; that for `Cc1cc(N2CCC3(CCN(C(C)c4ccc5scnc5c4)CC3)C2)n2nccc2n1` (racemic) [Example 14, 5-(1-(2-(5-methylpyrazolo[1,5-a]pyrimidin-7-yl)-2,8-diazaspiro[4.5]decan-8-yl)ethyl)benzo[d]thiazole], 200 to 1000 nM; that for `CC(c1ccc2scnc2c1)N1CCC2(CC1)NC(=O)N(Cc1cncnc1)C2=O` (racemic) [Example 5], 50 to 200 nM.
For `CC(c1ccc2scnc2c1)N1CCC2(CC1)NC(=O)N(c1ccc(Cl)cc1)C2=O` (racemic) [Example 65], the IC50 lay within 50 to 200 nM.
With `CC(c1ccc2scnc2c1)N1CCC2(CC1)CC(=O)N(Cc1ccc(S(C)(=O)=O)cc1)C2` (racemic) [Example 17, 8-(1-(benzo[d]thiazol-5-yl)ethyl)-2-(4-(methylsulfonyl)benzyl)-2,8-diazaspiro[4.5]decan-3-one] the figure was 1000 to 10000 nM; with `Cc1cc(CN2C(=O)NC3(CCN(C(C)c4ccc5scnc5c4)CC3)C2=O)ccn1` (racemic) [Example 67], 50 to 200 nM.
`CC(c1ccc2scnc2c1)N1CCC2(CC1)NC(=O)N(Cc1ccc(C#N)cc1)C2=O` (racemic) [Example 22, 4-((8-(1-(benzo[d]thiazol-5-yl)ethyl)-2,4-dioxo-1,3,8-triazaspiro[4.5]decan-3-yl)methyl)benzonitrile] yielded an IC50 of 50 to 200 nM.
As for `Cc1ccc(N2C(=O)NC3(CCN(C(C)c4ccc5scnc5c4)CC3)C2=O)cn1` (racemic) [Example 61], the IC50 was 50 to 200 nM.
The molecule `CC(c1ccc2scnc2c1)N1CCC2(CC1)CC(=O)N(c1ncccn1)C2` (racemic) [Example 73] registered an IC50 of 1000 to 10000 nM.
For the molecule `COCCN1C(=O)NC2(CCN(C(C)c3ccc4scnc4c3)CC2)C1=O` (racemic) [Example 7, 8-(1-(benzo[d]thiazol-5-yl)ethyl)-3-(2-methoxyethyl)-1,3,8-triazaspiro[4.5]decane-2,4-dione], the IC50 was 200 to 1000 nM.
With `CC(c1ccc2scnc2c1)N1CCC2(CC1)CC(=O)N(c1ccc(C#N)cc1)C2` (racemic) [Example 15, 4-(8-(1-(benzo[d]thiazol-5-yl)ethyl)-3-oxo-2,8-diazaspiro[4.5]decan-2-yl)benzonitrile], the IC50 lay in the range of 1000 to 10000 nM.
`CSc1cnc(N2CC3(CCN(Cc4cnc(NC(C)=O)s4)CC3)NC2=O)nc1` (racemic) [IA6] registered an IC50 of less than 50 nM.
`CC(c1ccc2c(c1)OCC2)N1CCC2(CC1)NC(=O)N(C)C2=O` (racemic) [Example 2, 8-(1-(2,3-dihydrobenzofuran-6-yl)ethyl)-3-methyl-1,3,8-triazaspiro[4.5]decane-2,4-dione]: the IC50 fell in the range of 200 to 1000 nM.
With `CC(c1ccc2scnc2c1)N1CCC2(CC1)NC(=O)N(c1ccc(C#N)cc1)C2=O` (racemic) [Example 13, 4-(8-(1-(benzo[d]thiazol-5-yl)ethyl)-2,4-dioxo-1,3,8-triazaspiro[4.5]decan-3-yl)benzonitrile], the IC50 is 50 to 200 nM.
With `CC(c1ccc2scnc2c1)N1CCC2(CC1)CN(c1ccc(F)cc1)C(=O)N2` (racemic) [Example 36, 8-(1-(benzo[d]thiazol-5-yl)ethyl)-3-(4-fluorophenyl)-1,3,8-triazaspiro[4.5]decan-2-one] the figure was 200 to 1000 nM.
In the case of `CC(c1ccc2scnc2c1)N1CCC2(CC1)CN(c1cccnn1)C(=O)N2` (racemic) [Example 59], the IC50 was less than 50 nM.
With `Cc1cc(N2C(=O)NC3(CCN(C(C)c4ccc5scnc5c4)CC3)C2=O)cc(C)n1` (racemic) [Example 60] the figure was less than 50 nM; with `CC(c1ccc2c(c1)OCC2)N1CCC2(CC1)C(=O)N(c1ccc(C#N)cc1)C(=O)N2C` (racemic) [Example 76], 1000 to 10000 nM.
With `CC(c1ccc2scnc2c1)N1CCC2(CC1)C(=O)N(Cc1ccc(S(C)(=O)=O)cc1)C(=O)N2C` (racemic) [Example 77] the figure was 1000 to 10000 nM.
With `CC(c1ccc2scnc2c1)N1CCC2(CC1)NC(=O)N(Cc1ccc(C(F)(F)F)nc1)C2=O` (racemic) [Example 8] the figure was 50 to 200 nM; with `CC(=O)Nc1ncc(CN2CCC3(CC2)NC(=O)N(Cc2ccc(C(F)(F)F)nc2)C3=O)s1` [IA1], 50 to 200 nM; with `CC(c1ccc2scnc2c1)N1CCC2(CC1)NC(=O)N(Cc1ccc(S(C)(=O)=O)cc1)C2=O` (stereo not drawn) [Example 10], 50 to 200 nM.
Molecule `CC(=O)Nc1ncc(CN2CCC3(CC2)NC(=O)N(Cc2ccnc(C)c2)C3=O)s1` (racemic) [IA5] returned an IC50 of less than 50 nM.
With `CC(c1ccc2scnc2c1)N1CCC2(CC1)NC(=O)N(C)C2=O` (racemic) [Example 1, 8-(1-(benzo[d]thiazol-5-yl)ethyl)-3-methyl-1,3,8-triazaspiro[4.5]decane-2,4-dione], the IC50 lay within 200 to 1000 nM.
With `CC(c1ccc2c(c1)OCC2)N1CCC2(CC1)CC(=O)N(Cc1ccc(S(C)(=O)=O)cc1)C2` (racemic) [Example 18, 8-(1-(2,3-dihydrobenzofuran-6-yl)ethyl)-2-(4-(methylsulfonyl)benzyl)-2,8-diazaspiro[4.5]decan-3-one] the figure was 200 to 1000 nM; with `CC(c1ccc2scnc2c1)N1CCC2(CC1)CN(c1ccc(C#N)cc1)C(=O)N2` (racemic) [Example 34, 4-(8-(1-(benzo[d]thiazol-5-yl)ethyl)-2-oxo-1,3,8-triazaspiro[4.5]decan-3-yl)benzonitrile], 50 to 200 nM; with `Cc1cc(N2CC3(CCN(C(C)c4ccc5scnc5c4)CC3)CC2=O)n2nccc2n1` (racemic) [Example 72], 1000 to 10000 nM.
The result for `CC(c1ccc2scnc2c1)N1CCC2(CC1)C(=O)N(Cc1ccc(C#N)cc1)C(=O)N2Cc1ccc(C#N)cc1` (racemic) [Example 23, 4,4′-((8-(1-(benzo[d]thiazol-5-yl)ethyl)-2,4-dioxo-1,3,8-triazaspiro[4.5]decane-1,3-diyl)bis(methylene))dibenzonitrile] reads 200 to 1000 nM; that for `Cc1cc(N2CC3(CCN(C(C)c4ccc5c(c4)OCC5)CC3)CC2=O)n2nccc2n1` (racemic) [Example 16, 8-(1-(2,3-dihydrobenzofuran-6-yl)ethyl)-2-(5-methylpyrazolo[1,5-a]pyrimidin-7-yl)-2,8-diazaspiro[4.5]decan-3-one], 1000 to 10000 nM; that for `COCCN1C(=O)NC2(CCN(C(C)c3ccc4c(c3)OCC4)CC2)C1=O` (racemic) [Example 6, 8-(1-(2,3-dihydrobenzofuran-6-yl)ethyl)-3-(2-methoxyethyl)-1,3,8-triazaspiro[4.5]decane-2,4-dione], 50 to 200 nM.
For `CC(c1ccc2scnc2c1)N1CCC2(CC1)CCN(S(C)(=O)=O)C2` (racemic) [Example 31, 5-(1-(2-(methylsulfonyl)-2,8-diazaspiro[4.5]decan-8-yl)ethyl) benzo[d]thiazole], the IC50 was 1000 to 10000 nM.
Molecule `CC(c1ccc2c(c1)OCC2)N1CCC2(CC1)C(=O)N(Cc1ccc(C#N)cc1)C(=O)N2C` (racemic) [Example 74] returned an IC50 of 1000 to 10000 nM.
With `CC(c1ccc2c(c1)OCC2)N1CCC2(CC1)NC(=O)N(c1ccc(C#N)cc1)C2=O` (racemic) [Example 12, 4-(8-(1-(2,3-dihydrobenzofuran-6-yl)ethyl)-2,4-dioxo-1,3,8-triazaspiro[4.5]decan-3-yl)benzonitrile] the figure was less than 50 nM; with `CC(c1ccc2c(c1)OCC2)N1CCC2(CC1)CC(=O)N(c1ccc(C#N)cc1)C2` (racemic) [Example 19, 4-(8-(1-(2,3-dihydrobenzofuran-6-yl)ethyl)-3-oxo-2,8-diazaspiro[4.5]decan-2-yl)benzonitrile], 1000 to 10000 nM.
The result for `CC(c1ccc2scnc2c1)N1CCC2(CC1)NC(=O)N(c1ccc(F)cc1)C2=O` (racemic) [Example 63] reads 50 to 200 nM.
